# Counter-ions that a name gives are not always drawn.
# Target: MCH receptor (Homo sapiens, UniProt Q99705)
# Test: High Throughput Functional Screening: FLIPR/FDSS6000 intracellular Ca2+ assay, antagonist activity against MCH
# Format: cell-based
# Parameters: class (percent of control at 10^−7 M or IC50): scale not given here
# Settings: FLIPR/FDSS, [Ca2+]i evoked by 50 nM MCH, non-endogenous constitutively active MCH receptor; read-out: IC50
# From the text: Subsequently, a functional based assay was used to confirm the lead hits, referred to as FLIPR™ (the Fluorometric Imaging Plate Reader) and FDSS6000™ (Functional Drug Screening System). This assay utilized a non-endogenous, constitutively active version of the MCH receptor.
# The FLIPR and FDSS assays are able to detect intracellular Ca^2+ concentration in cells, which can be utilized to assess receptor activation and determine whether a candidate compound is an, for example, antagonist, inverse agonist or agonist to a Gq-coupled receptor. The concentration of free Ca^2+ in the cytosol of any cell is extremely low, whereas its concentration in the extracellular fluid and endoplasmic reticulum (ER) is very high. Thus, there is a large gradient tending to drive Ca^2+ into the cytosol across both the plasma membrane and ER. The FLIPR™ and FDSS6000™ systems (Molecular Devices Corporation, HAMAMATSU Photonics K.K.) are designed to perform functional cell-based assays, such as the measurement of intracellular calcium for high-throughput screening. The measurement of fluorescent is associated with calcium release upon activation of the Gq-coupled receptors.
# Fluorometric Imaging Plate Reader system was used to allow for rapid, kinetic measurements of intracellular fluorescence in 96 well microplates (or 384 well microplates). Simultaneous measurements of fluorescence in all wells can be made by FLIPR or FDSS6000™ every second with high sensitivity and precision. These systems are ideal for measuring cell-based functional assays such as monitoring the intracellular calcium fluxes that occur within seconds after activation of the Gq coupled receptor.
# Briefly, the cells are seeded into 96 well at 5.5×10^4 cells/well with complete culture media (Dulbecco's Modified Eagle Medium with 10% fetal bovine serum, 2 mM L-glutamine, 1 mM sodium pyruvate and 0.5 mg/mL G418, pH 7.4) for the assay next day. On the day of assay, the media is removed and the cells are incubated with 100 μl of loading buffer (4 μM Fluo4-AM in complete culture media containing 2.5 mM Probenicid, 0.5 mg/ml and 0.2% bovine serum albumin) in 5% CO2 incubator at 37° C. for 1 hr. The loading buffer is removed, and the cells are washed with wash buffer (Hank's Balanced Salt Solution containing 2.5 mM Probenicid, 20 mM HEPES, 0.5 mg/mL and 0.2% bovine serum albumin, pH 7.4). One hundred fifty μl of wash buffer containing various concentrations of test compound is added to the cells, and the cells are incubated in 5% CO2 incubator at 37° C. for 30 min. Fifty μl of wash buffer containing various concentration of MCH are added to each well, and transient changes in [Ca^2+]i evoked by MCH are monitored using the FLIPR™ or FDSS in 96 well plates at Ex. 488 nm and Em. 530 nm for 290 second. When antagonist activity of compound is tested, 50 nM of MCH is used.
# Use of FLIPR™ and FDSS6000™ can be accomplished by following manufacturer's instruction (Molecular Device Corporation and HAMAMATSU Photonics K.K.).
row,SMILES,IC50
1,"Cc1cnc(N[C@H]2CC[C@@H](NC(=O)c3ccc(F)c(Cl)c3)CC2)cc1N(C)C [Example 4, 3-Chloro-N-(cis-4-{[4-(dimethylamino)-5-methylpyridin-2-yl]amino}cyclohexyl)-4-fluorobenzamide hydrochloride]",1 nM
2,"Cc1cnc(N[C@H]2CC[C@@H](NC(=O)c3cc(F)c(F)c(F)c3)CC2)cc1N(C)C [Example 5, N-(cis-4-{[4-(Dimethylamino)-5-methylpyridin-2-yl]amino}cyclohexyl)-3,4,5-trifluorobenzamide hydrochloride]",1.9 nM

# Same assay, conditions: FLIPR/FDSS, [Ca2+]i evoked by 50 nM MCH; class by percent of control at 10^−7 M or IC50
row,SMILES,class (percent of control at 10^−7 M or IC50)
1,"Cc1ccc(N[C@H]2CC[C@@H](NC(=O)c3ccc(F)c(Cl)c3)CC2)nc1.Cl [Example 2, 3-Chloro-4-fluoro-N-{cis-4-[(5-methylpyridin-2-yl)amino]cyclohexyl}benzamide hydrochloride]",2
2,"Cc1cccc(N[C@H]2CC[C@@H](NC(=O)c3ccc(F)c(Cl)c3)CC2)n1.Cl [Example 3, 3-Chloro-4-fluoro-N-{cis-4-[(6-methylpyridin-2-yl)amino]cyclohexyl}benzamide hydrochloride]",2
3,"Cc1cnc(N[C@H]2CC[C@@H](NC(=O)c3ccc(F)c(Cl)c3)CC2)cc1N.Cl [Example 17, N-{cis-4-[(4-Amino-5-methylpyridin-2-yl)amino]cyclohexyl}-3-chloro-4-fluorobenzamide hydrochloride]",2
4,"Cc1cnc(N[C@H]2CC[C@@H](NC(=O)c3cc(F)c(F)c(F)c3)CC2)cc1N.Cl [Example 18, N-{cis-4-[(4-Amino-5-methylpyridin-2-yl)amino]cyclohexyl}-3,4,5-trifluorobenzamide hydrochloride]",2
5,"CCN(C)c1cc(N[C@H]2CC[C@@H](NC(=O)c3ccc(F)c(Cl)c3)CC2)ncc1C.Cl [Example 19, 3-Chloro-N-[cis-4-({4-[ethyl(methyl)amino]-5-methylpyridin-2-yl}amino)cyclohexyl]-4-fluorobenzamide hydrochloride]",2
6,"Cc1cnc(N[C@H]2CC[C@@H](NC(=O)c3ccc(F)c(Cl)c3)CC2)cc1N1CCCC1.Cl [Example 20, 3-Chloro-4-fluoro-N-{cis-4-[(5-methyl-4-pyrrolidin-1-ylpyridin-2-yl)amino]cyclohexyl}-benzamide hydrochloride]",2
7,"Cc1cnc(N[C@H]2CC[C@@H](NC(=O)Nc3ccc(F)c(Cl)c3)CC2)cc1N(C)C.Cl [Example 25, N-(3-Chloro-4-fluorophenyl)-N′-(cis-4-{[4-(dimethylamino)-5-methylpyridin-2-yl]amino}cyclohexyl)urea hydrochloride]",2
8,"Cc1cnc(N[C@H]2CC[C@@H](NC(=S)Nc3ccc(F)c(Cl)c3)CC2)cc1N(C)C.Cl [Example 26, N-(3-Chloro-4-fluorophenyl)-N′-(cis-4-{[4-(dimethylamino)-5-methylpyridin-2-yl]amino}-cyclohexyl)thiourea hydrochloride]",2
9,"Cc1cnc(N[C@H]2CC[C@@H](NC(=O)Oc3ccc(Br)cc3)CC2)cc1N(C)C [Example 27, 4-Bromophenyl (cis-4-{[4-(dimethylamino)-5-methylpyridin-2-yl]amino}cyclohexyl)carbamate]",2

# Same assay, conditions: FLIPR/FDSS, [Ca2+]i evoked by 50 nM MCH; class by percent of control at 10^−7 M or IC50; read-out: class (percent of control at 10^−7 M or IC50)
row,SMILES,IC50
1,"Cc1cnc(N[C@H]2CC[C@@H](NC(=O)c3ccc(F)c(Cl)c3)CC2)cc1N(C)C [Example 4, 3-Chloro-N-(cis-4-{[4-(dimethylamino)-5-methylpyridin-2-yl]amino}cyclohexyl)-4-fluorobenzamide hydrochloride]",< 50 nM
2,"Cc1cnc(N[C@H]2CC[C@@H](NC(=O)c3cc(F)c(F)c(F)c3)CC2)cc1N(C)C [Example 5, N-(cis-4-{[4-(Dimethylamino)-5-methylpyridin-2-yl]amino}cyclohexyl)-3,4,5-trifluorobenzamide hydrochloride]",< 50 nM
3,"Cc1cnc(N[C@H]2CC[C@@H](NC(=O)c3cc(F)cc(Cl)c3)CC2)cc1N(C)C [Example 6, 3-Chloro-N-(cis-4-{[4-(dimethylamino)-5-methylpyridin-2-yl]amino}cyclohexyl)-5-fluorobenzamide hydrochloride]",< 50 nM
4,"Cc1cnc(N[C@H]2CC[C@@H](NC(=O)c3cc(Cl)cc(Cl)c3)CC2)cc1N(C)C [Example 7, 3,5-Dichloro-N-(cis-4-{[4-(dimethylamino)-5-methylpyridin-2-yl]amino}cyclohexyl)benzamide hydrochloride]",< 50 nM
5,"Cc1cnc(N[C@H]2CC[C@@H](NC(=O)c3ccc(F)c(F)c3)CC2)cc1N(C)C [Example 8, N-(cis-4-{[4-(Dimethylamino)-5-methylpyridin-2-yl]amino}cyclohexyl)-3,4-difluorobenzamide hydrochloride]",< 50 nM
6,"Cc1cnc(N[C@H]2CC[C@@H](NC(=O)c3ccc(Cl)c(Cl)c3)CC2)cc1N(C)C [Example 9, 3,4-Dichloro-N-(cis-4-{[4-(Dimethylamino)-5-methylpyridin-2-yl]amino}cyclohexyl)benzamide hydrochloride]",< 50 nM
7,"Cc1cnc(N[C@H]2CC[C@@H](NC(=O)c3cccc(Cl)c3)CC2)cc1N(C)C [Example 10, 3-Chloro-N-(cis-4-{[4-(dimethylamino)-5-methylpyridin-2-yl]amino}cyclohexyl)benzamide hydrochloride]",< 50 nM
8,"Cc1cnc(N[C@H]2CC[C@@H](NC(=O)c3cncc(Br)c3)CC2)cc1N(C)C [Example 11, 5-Bromo-N-(cis-4-{[4-(dimethylamino)-5-methylpyridin-2-yl]amino}cyclohexyl)nicotinamide dihydrochloride]",< 50 nM
9,"Cc1cnc(N[C@H]2CC[C@@H](NC(=O)c3cccc(OC(F)(F)F)c3)CC2)cc1N(C)C [Example 12, N-(cis-4-{[4-(Dimethylamino)-5-methylpyridin-2-yl]amino}cyclohexyl)-3-(trifluoromethoxy)-benzamide hydrochloride]",< 50 nM
10,"Cc1cnc(N[C@H]2CC[C@@H](NC(=O)c3ccc(F)c(C(F)(F)F)c3)CC2)cc1N(C)C [Example 13, N-(cis-4-{[4-(Dimethylamino)-5-methylpyridin-2-yl]amino}cyclohexyl)-4-fluoro-3-(trifluoromethyl)benzamide hydrochloride]",< 50 nM
11,"Cc1cnc(N[C@H]2CC[C@@H](NC(=O)c3cccc(C(F)(F)F)c3)CC2)cc1N(C)C [Example 14, N-(cis-4-{[4-(Dimethylamino)-5-methylpyridin-2-yl]amino}cyclohexyl)-3-(trifluoromethyl)-benzamide hydrochloride]",< 50 nM
12,"CNc1cc(N[C@H]2CC[C@@H](NC(=O)c3ccc(F)c(Cl)c3)CC2)ncc1C [Example 15, 3-Chloro-4-fluoro-N-(cis-4-{[5-methyl-4-(methylamino)pyridin-2-yl]amino}cyclohexyl)-benzamide hydrochloride]",< 50 nM
13,"CNc1cc(N[C@H]2CC[C@@H](NC(=O)c3cc(F)c(F)c(F)c3)CC2)ncc1C [Example 16, 3,4,5-Trifluoro-N-(cis-4-{[5-methyl-4-(methylamino)pyridin-2-yl]amino}cyclohexyl)-benzamide hydrochloride]",< 50 nM
14,"Cc1cc(N(C)C)cc(N[C@H]2CC[C@@H](NC(=O)c3ccc(F)c(Cl)c3)CC2)n1 [Example 28, 3-Chloro-N-(cis-4-{[4-(dimethylamino)-6-methylpyridin-2-yl]amino}cyclohexyl)-4-fluorobenzamide hydrochloride]",< 50 nM
15,"Cc1cc(N(C)C)cc(N[C@H]2CC[C@@H](NC(=O)c3cc(F)c(F)c(F)c3)CC2)n1 [Example 29, N-(cis-4-{[4-(Dimethylamino)-6-methylpyridin-2-yl]amino}cyclohexyl)-3,4,5-trifluorobenzamide hydrochloride]",< 50 nM
